# From patent US9018257B2, “5-aminolevulinic acid derivatives, methods for their preparation and uses thereof” (Bar Ilan University, priority 2011, dated 2015)
# How the values were obtained:
# [1] = system: PBGD mRNA; experiment: PBGD mRNA, quantitative real-time PCR, K562 cells; assay type: cell-based, human; settings: 0.5 mM, after 48-96 hours
# Protocol: (§1) Total RNA (1 μg) was primed by oligo dT and reverse-transcribed by Verso cDNA kit according to the manufacturer's protocol (Thermo Scientific, West Palm Beach, USA). Quantitative PCR was done on a Step One Plus thermocycler (Applied Byosystems, Van Allen Way, CA, USA). The comparative threshold method was used to calculate the relative gene expression. Values were normalized against glyceraldehyde 3-phosphate dehydrogenase (GAPDH) for the different genes. Real time PCR was performed with Syber Green (Kapa Biosystems, Woburn, Mass., USA) using the following primers: […]
# Relative quantification of gene expression was determined by the comparative threshold method (ÄCT), as described previously (Livak K J, Schmittgen T D). Analysis of relative gene expression data using real-time quantitative PCR and the 2(−Delta Delta C(T)) Method. Expression of the Gapdh mRNA in each individual sample was used to normalize the dataset.
# (§2) K562 cells are grown as described above and incubated with 0.5 mM of various compounds for 96 hours. Activity of PBGD is evaluated as described above. Expression level of the PBGD protein is evaluated using Western blot analysis (as detailed above). Expression level of PBGD mRNA are evaluated using Quantitative real-time PCR.
# [2] = system: α-globin; experiment: α-globin mRNA, quantitative real-time PCR, K562 cells; assay type: cell-based, human; settings: 0.5 mM, 72 hours (peak)
# Protocol: Globin RNAs are quantified by quantitative real time polymerase chain reaction, (qRT-PCR) using SYBR I Green (Applied Biosystems). The cDNA is generated from cell culture or tissues using a PCR purification kit (Qiagen, Valencia, Calif., USA). The qRT-PCR is performed in triplicate and is repeated in at least three separate experiments.
# as §1
# (§3) K562 cells are grown as described above and incubated with 0.5 mM of various compounds for 96 hours. Total heme content in the cells is evaluated. In addition, a globin mRNA and protein expression levels are evaluated using Quantitative real-time PCR and Western blot analysis, respectively.
# [3] = system: K562 cells; experiment: MTT viability / proliferation of K562 cells; assay type: cell-based, human; settings: 96 hours
# Protocol: Cells are grown in 24 wells plate in a volume of 0.5 mL and treated as indicated for 96 hours. Then, 77 μL of 5 mg/mL MTT (3-[4,5-dimethylthiazol-2-yl]-2,5-diphenyltetrazolium bromide, (Sigma, Israel)) is added to each well for 2 hours. Afterwards, 400 μL of DMF solution (100 gr SDS dissolved in 250 mL dd H2O with 250 mL of DMF) is added for 4 hours. Absorbance is then measured in 570 nm using a Tecan spectrophotometer (NeoTec, Canada).
# To evaluate the effect of various tested compounds on cell proliferation, K562 cells were treated for 96 hours and their viability was evaluated by MTT as detailed above.
# [4] = system: K562 cells; experiment: PpIX synthesis in K562 cells (FACS fluorescence); assay type: cell-based, human; settings: 0.5 mM, 96 hours, vs 5-ALA alone, BA alone or their mixture
# Protocol: Following treatment, cells are harvested, collected by centrifugation, washed twice and resuspended in 0.5 mL with sterile PBS. PpIX fluorescence is measured in 10,000 cells per sample using a FACS (Becton-Dickinson, CA, USA) with an excitation wavelength of 488 nm and emission wavelength>670 nm. Images of the stained cells are examined using a fluorescent microscope (IX70) (Olympus Tokyo, Japan) using an excitation filter of 330-385 nm and barrier filter at 420 nm […] PpIX fluorescence is measured at the FL-3 channel of FACS Calibur. Additionally, pictures of cells are taken using a fluorescent microscope-Nikon TE200-E, to show PpIX fluorescence.
# [5] = system: PBGD; experiment: PBGD protein expression, Western blot, K562 cells; assay type: cell-based, human; settings: 0.5 mM, 96 hours, compared to untreated cells or cells treated with ALA
# Protocol: (§4) Proteins are quantified and equalized using the Bradford assay (Bio-Rad, CA, USA) and resolved on a 12% polyacrylamide gel. Afterwards, proteins are transferred from the gel onto nitrocellulose membranes (Bio-Rad, CA, USA) using a semi-dry transfer apparatus (Bio-Rad, CA, USA). After blocking the membranes with phosphate-buffered saline+0.2% Tween-20 (PBST) (Sigma-Aldrich, Israel) and 5% skim-milk (BD-Diagnostic Systems, MD, USA), membranes are incubated with primary rabbit anti-human PBGD antibody (a generous gift from flemeBiotech, Sweden), or with rabbit anti-α-Hb (H80) (Santa Cruz Biotechnology, CA, USA), or with HRP-conjugated mouse anti-β-actin antibody (C4) (Santa Cruz Biotechnology, CA, USA) diluted in blocking solution for 1 h in room temperature or for overnight in 4° c., washed with PBST and incubated with secondary antibodies diluted in blocking solution. Immuno-reactive proteins were visualized with enhanced chemiluminiscence detection EZ-ECL kit (Biological Industries, Israel) used as recommended by the manufacturer.
# as §2
# [6] = system: K562 cells; experiment: Intracellular total heme assay in K562 cells; assay type: cell-based, human; settings: 0.5 mM, 96 hours, vs ALA alone, BA alone or mixture
# Protocol: The method for quantitative determination of total heme in cell lysates is performed using hemin as a standard. The “total heme” or “endogenous heme” measured in these assays includes bound and free heme. Following treatments, 100 or 500 μg of cell lysate was added to 100 μL orthotolidine reagent (0.25 gr orthotolidine (Sigma-Aldrich, Israel) dissolved in 80 mL glacial acetic acid (Sigma-Aldrich, Israel) and 10 mL dd H2O). Heme is oxidized to a green product by adding 100 μL of 1.2% H2O2 to the mixture for 10 minutes incubation in the dark. The first oxidation product was further oxidized to a yellow product by adding 0.5 mL of a 1:9 v/v solution of diluted acetic acid. Absorbance of the second product was read at 430 nm using a spectrophotometer (Tecan Trading AG, Switzerland).
# as §3
# [7] = system: Ferrochelatase; experiment: Ferrochelatase protein expression in K562 cells; assay type: cell-based, human; settings: vs ALA, BA or their mixture
# Protocol: K562 cells are fixed and stained with primary antibodies anti-αHb or anti-Glycophorin A and are tagged using the compatible secondary antibodies-Alexa 488-conjugated anti-rabbit antibody donkey anti-goat (Invitrogen, Oregon, USA) as recommended by Cell Signaling (MA, USA). Fluorescence is measured in 10,000 cells using FACS with an excitation wavelength of 488 nm and emission wavelength of 530 nm. K562 cells were suspended in paraformaldehyde 4% for 10 min at 37° C., followed by incubation with chilled methanol (final concentration 90%) for 30 min on ice. Cells were washed twice with PBS−/− and blocked with BSA 0.5% in PBS−/− for 10 min at room temperature. Afterwards, the cells were incubated in 50 μL of the primary antibody goat polyclonal Ferrochelatase (Santa Cruz Biotechnology, Santa Cruz, Calif., USA) or goat polyclonal glycophorin A (Santa Cruz Biotechnology, Santa Cruz, Calif., USA) (1:50 in BSA 0.5%) or anti-a Hb for 30 min at room temperature, washed once with PBS−/−, and incubated with a fluorescent donkey anti-goat IgG secondary antibody (1:1000) (Invitrogen, Carlsbad, Calif., USA) for 30 min at room temperature. The cells were washed again with PBS−/− and fluorescence was measured in 10,000 cells per sample using a FACS (Becton-Dickinson, San Jose, Calif., USA) with an excitation wavelength of 488 nm and emission wavelength 530 nm. […]
# [8] = system: Balb-c mice; experiment: Doxorubicin induced anemia in mice, blood hemoglobin; assay type: in vivo; settings: male Balb-c mice, Dox 4 mg/kg ip once a week + 50 mg/kg ip compound, day 19; vs Dox alone
# Protocol: In an additional setting 8 weeks old male Balb-c mice were divided to two groups, Group 1 received 4 mg/kg ip dose of Doxorubicin (Dox) once a week and Group 2 received the same Doxorubicin treatment and in addition the mice were treated with 50 mg/kg ip dose of the tested compound three times a week. Termination was done on day 19, blood samples were drawn by retro-orbital venipuncture under anesthesia. Hemoglobin levels in heparinized whole blood were determined using Drabkints reagent and standard hemoglobin obtained from Sigma-Aldrich and prepared and stored as instructed by the manufacturer.
# In vivo 8 weeks old male Balb-c mice were divided to two groups, Group 1 received 4 mg/kg ip dose of doxorubicin (Dox) once a week and Group 2 received the same Dox treatment and in addition the mice were treated with 50 mg/kg ip dose of compound of formula (I-a) (in this example, 1-(butyryloxy)ethyl-5-amino-4-oxopentanoate, (AlaAcBu)) three times a week. The experiment was terminated on day 19, blood samples were drawn by retro-orbital venipuncture under anesthesia. Hemoglobin levels in heparinized whole blood were determined using Drabkin's reagent and standard hemoglobin obtained from Sigma-Aldrich and prepared and stored as instructed by the manufacturer.
# [9] = system: α-globin; experiment: α-globin protein expression, Western blot, K562 cells; assay type: cell-based, human; settings: 0.5 mM, 96 hours, compared to any other treatment
# Protocol: as §4, §3
# [10] = system: porphobilinogen deaminase (PBGD); experiment: PBGD enzymatic activity assay in K562 cells; assay type: cell-based, human; settings: 0.5 mM, 96 hours, vs ALA alone, BA alone or mixture
# Protocol: K562 cells (1×10^6) are treated for 96 hours. PBGD activity is assayed as previously described by determining the fluorescence of uroporphyrin formed by the light-induced oxidation of uroporphyrinogen, which is the immediate product of the enzymatic deamination of 4 porphobilinogen molecules. In short, cells are harvested following treatment, and washed twice with PBS. After centrifugation, the pellet was resuspended in 200 μL 50 mM Tris buffer (pH 8.2) with 0.2% Triton. The cells are homogenized on ice and protein levels are quantified using the Bradford method. 400 μg protein was taken out in duplicates for incubation in 300 μL of 50 mM Tris buffer (pH 8.2) containing 0.2% Triton, with final concentration of 85 μM PBG (Sigma, Israel) for 1 hour at 37° C. The reaction is stopped by addition of 1.2 mL 15.6% TCA. […] The samples fluorescence is read using a Synergy spectrofluorometer (BioTek Instruments, VT, USA) with an excitation wavelength of 404 nm, and an emission wavelength of 595 nm. PBGD specific activity is calculated as activity percentage of control.
# as §2
# [11] = system: Glycophorin A; experiment: Glycophorin A expression by flow cytometry (erythroblast differentiation); assay type: cell-based, human; settings: K562 cells, 0.5 mM, 96 hours; compared to any other treatment
# Protocol: K562 cells are fixed and stained with primary antibodies anti-αHb or anti-Glycophorin A and are tagged using the compatible secondary antibodies-Alexa 488-conjugated anti-rabbit antibody donkey anti-goat (Invitrogen, Oregon, USA) as recommended by Cell Signaling (MA, USA). Fluorescence is measured in 10,000 cells using FACS with an excitation wavelength of 488 nm and emission wavelength of 530 nm. K562 cells were suspended in paraformaldehyde 4% for 10 min at 37° C., followed by incubation with chilled methanol (final concentration 90%) for 30 min on ice. Cells were washed twice with PBS−/− and blocked with BSA 0.5% in PBS−/− for 10 min at room temperature. […] The cells were washed again with PBS−/− and fluorescence was measured in 10,000 cells per sample using a FACS (Becton-Dickinson, San Jose, Calif., USA) with an excitation wavelength of 488 nm and emission wavelength 530 nm.
# K562 cells are grown as described above and incubated with 0.5 mM of various compounds for 96 hours. […] Glycophorin A content is measured using immunostaining analyzed by flow cytometry, as detailed above. […]
# [12] = system: K562 cells; experiment: TEM ultrastructure of K562 cells (cellular maturation); assay type: cell-based, human; settings: 96 hours
# Protocol: Analysis is performed on bone-marrow, spleen and liver, processed as described in [17]. Briefly, cells are treated for 96 hours (hrs), harvested and fixed with Karnovsky fixative. The samples are washed in 0.1 M cacodylate buffer and fixed with 1% OsO4 in 0.1 M sodium cacodylate buffer for 1 hour (h). The samples are then dehydrated in graded ethanol solutions and propylene oxide and embedded in agar mix. Thin sections are cut, stained with uranyl acetate and lead citrate, and observed under a transmission electron microscope.
# To evaluate morphologic changes associated with the effect of compound of formula (I-a) (in this example, AlaAcBu) and the ALA+HDACI (in this example, BA) mixture on K562 cells, the cells were examined by immunohystochemical experiments, as shown in FIG. 7.
# [13] = system: HDAC class I and II; experiment: Cellular HDAC activity (Fluor de Lys) in U-251 cells; assay type: cell-based, human; settings: 2 hours with substrate, read-out: IC50 of HDAC inhibition
# Protocol: Inhibition of the activity HDAC class I and II in the cells is performed with the fluorescent kit (AK-503, Biomol, USA). The cells are seeded (10×10^3 cells/well) in 96-well plates (in quadruplicates) in growth medium for 24 hours and then treated. Incubation with the HDAC substrate (Fluor de Lys™) is for 2 hours. The reaction is terminated by the addition of Fluor de Lys™ developer and 2 μM trichostatin A (TSA). The % of inhibition is calculated from the ratio of the fluorescence (measured at 355 nm excitation and 460 nm emission) in the treated compared to the untreated control culture.
# In order to test the direct effect of octanoic acid, as well as co-drugs of formula (I-a) (which comprise octanoic acid as the carboxylic acid), on the activity of cellular HDAC, the activity of HDAC is evaluated by incubating U-251 cells for 2 hours with the cell-permeable HDAC fluorometric substrate for HDAC class I and II (Fluor de Lys™), as detailed above.
structure (smiles),measurement,setting,value
"NCC(=O)CCC(=O)O [ALA, 5-aminolevulinic acid]",PBGD mRNA level,[1],significantly decreased
same,"α-globin mRNA expression, fold elevation",[2],2.2 fold
same,"cell viability (MTT, mitochondria activity % of control)",[3],did not affect cell viability
"CCCC(=O)OC(C)OC(=O)CCC(=O)CN (stereo not drawn) [AlaAcBu, 1-(butyryloxy)ethyl 5-amino-4-oxopentanoate]",intensity of the fluorescence generated by PpIX,[4],substantially higher
same,"expression levels of PGBD (protein, Western blot)",[5],increased similarly
same,fold increase in total heme content,[6],higher
same,Ferrochelatase protein expression,[7],significantly higher level
same,hemoglobin level in blood,[8],ameliorate the Dox-induced suppression of erythropoiesis
same,protein expression levels of α-globin,[9],markedly elevated
same,"α-globin mRNA expression, fold elevation",[2],11.3 fold
same,relative activity of PGBD compared to control,[10],higher
same,relative expression of Glycophorin A (percentage of control),[11],highest increase
same,ultrastructural changes identified by TEM,[12],"chromatin condensation, cytosolic hemoglobinization"
same,inhibition of cell proliferation (MTT),[3],33%
"CCCC(=O)O [BA, butyric acid]","expression levels of PGBD (protein, Western blot)",[5],increased similarly
same,"α-globin mRNA expression, fold elevation",[2],9.1 fold
same,"cell viability (MTT, mitochondria activity % of control)",[3],even increased it
CCCCCCCC(=O)O [octanoic acid],IC50,[13],500 µM
